Test results taken from patent US20230085307A1, “PYRIDAZINONE COMPOUND AND HERBICIDE” (NISSAN CHEMICAL CORPORATION, priority 2019, published 2023).

What was measured:
green foxtail = test: Test Example 5: herbicidal effect by foliage application, plastic box (Table 20, symbol G); assay type: in vivo, green foxtail (Setaria viridis); settings: foliage application, 320 g/ha, three weeks after application
Summary of the method: (§1)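 Sow seeds spot-wise in sterilized diluvial soil; cover with ~1.5 cm soil. Grow 14 days in greenhouse, 25° C. to 30° C. Spray foliage with emulsion diluted to predetermined amount. Rate effect after 3 weeks.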

velvetleaf = test: Test Example 4: herbicidal effect by soil treatment (Table 19, symbol M); assay type: in vivo, velvetleaf (Abutilon theophrasti); settings: amount of applied herbicide 320 g/ha
Summary of the method: (§2)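 Applied as a water-diluted emulsion, the compound was sprayed onto soil covering newly sown seeds. Evaluation came three weeks after application, in a greenhouse held at 25° C. to 30° C.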

oval-leafed pondweed [1] = test: Test Example 1: herbicidal activity, application before weed generation under submerged conditions (Table 16, symbol C); assay type: in vivo, oval-leafed pondweed (Monochoria vaginalis); settings: amount of applied herbicide 320 g/ha
Summary of the method: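 Submerged Wagner pots (alluvial soil, 4 cm water) sown with weed seeds and planted with 2.5-leaf rice seedlings; emulsifiable concentrate diluted in water applied to water surface on sowing day. Held in greenhouse at 25-30 °C; injury scored 0-5 by herbicidal rate after three weeks.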

windgrass [2] = test: Test Example 5: herbicidal effect by foliage application, plastic box (Table 20, symbol L); assay type: in vivo, windgrass (Apera spica-venti); settings: foliage application, 320 g/ha, three weeks after application
Summary of the method: as §1

persian speedwell = test: Test Example 5: herbicidal effect by foliage application, plastic box (Table 20, symbol R); assay type: in vivo, Persian speedwell (Veronica persica); settings: foliage application, 320 g/ha, three weeks after application
Summary of the method: as §1

rice flat sedge = test: Test Example 3: herbicidal effect by foliage application, Wagner pot (Table 18, symbol E); assay type: in vivo, rice flat sedge (Cyperus iria)
Summary of the method: (§3)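 Plants were sown in alluvial soil held under 0.1–0.5 cm standing water and grown 14 days in a greenhouse at 25–30 °C. An emulsifiable formulation, water-diluted to the set dose, was then sprayed onto the foliage, and effects were scored three weeks later using previously defined criteria.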

southern crabgrass [3] = test: Test Example 5: herbicidal effect by foliage application, plastic box (Table 20, symbol F); assay type: in vivo, southern crabgrass (Digitaria ciliaris); settings: foliage application, 320 g/ha, three weeks after application
Summary of the method: as §1

Chinese sprangletop = test: Test Example 3: herbicidal effect by foliage application, Wagner pot (Table 18, symbol D); assay type: in vivo, chinese sprangletop (Leptochloa chinensis)
Summary of the method: as §3

redroot pigweed = test: Test Example 4: herbicidal effect by soil treatment (Table 19, symbol N); assay type: in vivo, redroot pigweed (Amaranthus retroflexus); settings: amount of applied herbicide 320 g/ha
Summary of the method: as §2

oval-leafed pondweed [4] = test: Test Example 2: herbicidal activity, application during weed generation under submerged conditions (Table 17, symbol C); assay type: in vivo, oval-leafed pondweed (Monochoria vaginalis); settings: AAH 320 g/ha; application during weed generation, submerged conditions
Summary of the method: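 In this pot test, flooded alluvial soil (water depth 4 cm) holds all three species sown as a mixture. Once seedlings have one to two leaves, the compound's emulsion, thinned with water to the intended dose, is poured on the water; grading follows after three weeks on the earlier criteria.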

lambsquarters [5] = test: Test Example 4: herbicidal effect by soil treatment (Table 19, symbol O); assay type: in vivo, lambsquarters (Chenopodium album); settings: amount of applied herbicide 320 g/ha
Summary of the method: as §2

lambsquarters [6] = test: Test Example 5: herbicidal effect by foliage application, plastic box (Table 20, symbol O); assay type: in vivo, lambsquarters (Chenopodium album); settings: foliage application, 320 g/ha, three weeks after application
Summary of the method: as §1

southern crabgrass [7] = test: Test Example 4: herbicidal effect by soil treatment (Table 19, symbol F); assay type: in vivo, southern crabgrass (Digitaria ciliaris); settings: amount of applied herbicide 320 g/ha
Summary of the method: as §2

chickweed = test: Test Example 5: herbicidal effect by foliage application, plastic box (Table 20, symbol P); assay type: in vivo, common chickweed (Stellaria media); settings: foliage application, 320 g/ha, three weeks after application
Summary of the method: as §1

barnyard grass = test: Test Example 5: herbicidal effect by foliage application, plastic box (Table 20, symbol H); assay type: in vivo, barnyard grass (Echinochloa crus-galli); settings: foliage application, 320 g/ha, three weeks after application
Summary of the method: as §1

false cleavers = test: Test Example 4: herbicidal effect by soil treatment (Table 19, symbol Q); assay type: in vivo, false cleavers (Galium spurium); settings: amount of applied herbicide 320 g/ha
Summary of the method: as §2

windgrass [8] = test: Test Example 4: herbicidal effect by soil treatment (Table 19, symbol L); assay type: in vivo, windgrass (Apera spica-venti); settings: amount of applied herbicide 320 g/ha
Summary of the method: as §2

[9] = amount of applied herbicide 320 g/ha

Row | SMILES | G: green foxtail, herbicidal effect grade (green foxtail) | Herbicidal effect, C: oval-leafed pondweed (oval-leafed pondweed [1]) | L: windgrass, herbicidal effect grade (windgrass [2]) | R: persian speedwell, herbicidal effect grade (persian speedwell) | F: southern crabgrass, herbicidal effect grade (southern crabgrass [3]) | herbicidal effect rating, C: oval-leafed pondweed (oval-leafed pondweed [4]) | O: lambsquarters, herbicidal effect grade (lambsquarters [6]) | P: chickweed, herbicidal effect grade (chickweed) | H: barnyard grass, herbicidal effect grade (barnyard grass) | also measured
1 | CCOc1cc(F)ccc1-c1sc2cc(F)ccc2c1-c1c(O)c(C)nn(C)c1=O [3-011] | 5 (Herbicidal rate of 90% or more (almost completely withered)) | 3 (Herbicidal rate of 40% or more and less than 70%) | 5 (Herbicidal rate of 90% or more (almost completely withered)) | 5 (Herbicidal rate of 90% or more (almost completely withered)) | 5 (Herbicidal rate of 90% or more (almost completely withered)) | 4 (Herbicidal rate of 70% or more and less than 90%) | 5 (Herbicidal rate of 90% or more (almost completely withered)) | 5 (Herbicidal rate of 90% or more (almost completely withered)) | 5 (Herbicidal rate of 90% or more (almost completely withered)) | herbicidal effect, M: velvetleaf (velvetleaf): 4 (Herbicidal rate of 70% or more and less than 90%); herbicidal effect on E: rice flat sedge (rice flat sedge; [9]): 5 (Herbicidal rate of 90% or more (almost completely withered)); herbicidal effect on D: Chinese sprangletop (Chinese sprangletop; [9]): 4 (Herbicidal rate of 70% or more and less than 90%); herbicidal effect, N: redroot pigweed (redroot pigweed): 5 (Herbicidal rate of 90% or more (almost completely withered)); herbicidal effect, O: lambsquarters (lambsquarters [5]): 5 (Herbicidal rate of 90% or more (almost completely withered)); herbicidal effect, F: southern crabgrass (southern crabgrass [7]): 5 (Herbicidal rate of 90% or more (almost completely withered)); herbicidal effect, Q: false cleavers (false cleavers): 5 (Herbicidal rate of 90% or more (almost completely withered)); herbicidal effect, L: windgrass (windgrass [8]): 5 (Herbicidal rate of 90% or more (almost completely withered))
2 | CCOc1ccccc1-c1sc2cc(OC)ccc2c1-c1c(O)c(C)nn(CC)c1=O [3-085] | 4 (Herbicidal rate of 70% or more and less than 90%) | 4 (Herbicidal rate of 70% or more and less than 90%) | 4 (Herbicidal rate of 70% or more and less than 90%) | 5 (Herbicidal rate of 90% or more (almost completely withered)) | 5 (Herbicidal rate of 90% or more (almost completely withered)) | 3 (Herbicidal rate of 40% or more and less than 70%) | 3 (Herbicidal rate of 40% or more and less than 70%) | 5 (Herbicidal rate of 90% or more (almost completely withered)) | 4 (Herbicidal rate of 70% or more and less than 90%) | M: velvetleaf, herbicidal effect grade (velvetleaf): 0 (Herbicidal rate of 5% or less (almost no effect)); herbicidal effect on rice flat sedge (E) (rice flat sedge; 320 g/ha): 4 (Herbicidal rate of 70% or more and less than 90%); herbicidal effect on Chinese sprangletop (D) (Chinese sprangletop; 320 g/ha): 0 (Herbicidal rate of 5% or less (almost no effect)); N: redroot pigweed, herbicidal effect grade (redroot pigweed): 3 (Herbicidal rate of 40% or more and less than 70%); O: lambsquarters, herbicidal effect grade (lambsquarters [5]): 3 (Herbicidal rate of 40% or more and less than 70%); F: southern crabgrass, herbicidal effect grade (southern crabgrass [7]): 4 (Herbicidal rate of 70% or more and less than 90%); Q: false cleavers, herbicidal effect grade (false cleavers): 0 (Herbicidal rate of 5% or less (almost no effect)); L: windgrass, herbicidal effect grade (windgrass [8]): 0 (Herbicidal rate of 5% or less (almost no effect))
